Results published in ChEMBL document CHEMBL1909046, “DrugMatrix in vitro pharmacology data”.

How the values were obtained:
[1] = target: 5-hydroxytryptamine receptor 4 (Cavia porcellus, UniProt O70528); assay type: cell membranes, Dunkin-Hartley, Striatum, Membrane; also: in other assays of this panel Not Active means under 50% inhibition at 10 µM
Endothelin-1 receptor = target: T1, Endothelin-1 receptor (Homo sapiens, UniProt P25101); assay type: cell membranes, Membrane; settings: cho-k1; also: in other assays of this panel Not Active means under 50% inhibition at 10 µM
T1 sequence (P25101 whole entry): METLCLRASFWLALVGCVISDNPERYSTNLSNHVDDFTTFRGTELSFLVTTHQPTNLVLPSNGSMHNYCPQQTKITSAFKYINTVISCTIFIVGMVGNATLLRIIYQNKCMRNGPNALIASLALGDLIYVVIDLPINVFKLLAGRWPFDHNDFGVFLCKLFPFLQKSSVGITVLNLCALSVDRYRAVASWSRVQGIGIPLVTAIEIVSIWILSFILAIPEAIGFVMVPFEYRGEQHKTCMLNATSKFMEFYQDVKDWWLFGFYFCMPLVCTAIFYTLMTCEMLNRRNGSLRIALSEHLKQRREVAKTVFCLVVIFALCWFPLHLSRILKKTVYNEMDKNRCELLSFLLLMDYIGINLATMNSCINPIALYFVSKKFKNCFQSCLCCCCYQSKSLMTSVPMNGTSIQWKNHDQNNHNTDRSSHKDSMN

[2] = DRUGMATRIX: Potassium Channel [KATP] radioligand binding (ligand: [3H] Glyburide); assay type: cell membranes, Membrane; settings: hit-t15; Not Active = under 50% inhibition at 10 µM
Adenosine receptor A3 = target: T2, Adenosine receptor A3 (Homo sapiens, UniProt P0DMS8); assay type: cell membranes, CHO-K1, Membrane;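 also: radioligand binding assay with AB-MECA serving as the labeled ligand; in other assays of this panel Not Active means under 50% inhibition at 10 µM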
T2 sequence (P0DMS8 whole entry): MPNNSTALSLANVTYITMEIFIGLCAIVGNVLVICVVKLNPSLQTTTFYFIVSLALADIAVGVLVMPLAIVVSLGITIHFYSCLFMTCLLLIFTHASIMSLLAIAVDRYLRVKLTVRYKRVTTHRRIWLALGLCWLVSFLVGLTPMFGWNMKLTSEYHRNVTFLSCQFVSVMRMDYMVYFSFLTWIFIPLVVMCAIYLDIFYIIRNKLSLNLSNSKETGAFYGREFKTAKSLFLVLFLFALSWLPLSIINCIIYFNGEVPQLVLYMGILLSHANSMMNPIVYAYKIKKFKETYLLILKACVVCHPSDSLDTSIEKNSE

Insulin receptor = Insulin receptor (Rattus norvegicus, UniProt P15127); assay type: cell membranes, Wistar, Liver, Membrane; also: in other assays of this panel Not Active means under 50% inhibition at 10 µM
Sequence of Insulin receptor (P15127 27-759 limits assumed): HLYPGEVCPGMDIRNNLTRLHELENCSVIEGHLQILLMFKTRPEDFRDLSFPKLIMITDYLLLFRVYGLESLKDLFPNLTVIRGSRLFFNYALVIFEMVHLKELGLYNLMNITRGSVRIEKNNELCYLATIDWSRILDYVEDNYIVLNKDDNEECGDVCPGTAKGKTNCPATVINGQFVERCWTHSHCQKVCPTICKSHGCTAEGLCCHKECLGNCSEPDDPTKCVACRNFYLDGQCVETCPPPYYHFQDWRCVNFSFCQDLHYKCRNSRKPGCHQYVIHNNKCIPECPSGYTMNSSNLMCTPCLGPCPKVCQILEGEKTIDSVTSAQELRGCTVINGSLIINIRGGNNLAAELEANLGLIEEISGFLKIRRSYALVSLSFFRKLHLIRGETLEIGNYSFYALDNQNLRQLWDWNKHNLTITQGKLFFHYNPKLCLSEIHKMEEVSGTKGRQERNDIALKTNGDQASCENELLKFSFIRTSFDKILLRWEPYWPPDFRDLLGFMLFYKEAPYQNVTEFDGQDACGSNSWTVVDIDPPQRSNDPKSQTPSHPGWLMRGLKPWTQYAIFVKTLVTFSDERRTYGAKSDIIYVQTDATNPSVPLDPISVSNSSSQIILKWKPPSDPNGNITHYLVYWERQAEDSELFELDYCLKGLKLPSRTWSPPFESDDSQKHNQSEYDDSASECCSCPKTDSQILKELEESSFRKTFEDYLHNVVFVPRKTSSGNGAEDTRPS
Sequence of Insulin receptor (P15127 764-1383 limits assumed): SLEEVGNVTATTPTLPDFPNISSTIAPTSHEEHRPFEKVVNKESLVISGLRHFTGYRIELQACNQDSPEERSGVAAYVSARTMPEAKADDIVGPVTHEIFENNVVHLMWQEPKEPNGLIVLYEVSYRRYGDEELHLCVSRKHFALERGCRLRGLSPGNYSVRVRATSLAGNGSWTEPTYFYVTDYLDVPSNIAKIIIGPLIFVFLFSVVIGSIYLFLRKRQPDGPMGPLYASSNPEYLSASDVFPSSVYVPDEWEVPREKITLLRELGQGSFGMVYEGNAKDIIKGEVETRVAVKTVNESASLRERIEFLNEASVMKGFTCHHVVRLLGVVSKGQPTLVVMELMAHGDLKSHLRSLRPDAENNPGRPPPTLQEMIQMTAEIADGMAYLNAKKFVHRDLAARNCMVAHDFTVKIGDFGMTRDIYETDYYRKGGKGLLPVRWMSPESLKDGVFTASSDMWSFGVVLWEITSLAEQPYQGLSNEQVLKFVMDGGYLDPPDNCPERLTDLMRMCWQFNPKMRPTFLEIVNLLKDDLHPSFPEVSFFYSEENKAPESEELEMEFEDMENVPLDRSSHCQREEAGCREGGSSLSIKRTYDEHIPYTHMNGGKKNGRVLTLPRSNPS

Substance-P receptor = Substance-P receptor (Homo sapiens, UniProt P25103); assay type: cell membranes, Membrane; settings: cho; also: in other assays of this panel Not Active means under 50% inhibition at 10 µM
Sequence of Substance-P receptor (P25103 whole entry): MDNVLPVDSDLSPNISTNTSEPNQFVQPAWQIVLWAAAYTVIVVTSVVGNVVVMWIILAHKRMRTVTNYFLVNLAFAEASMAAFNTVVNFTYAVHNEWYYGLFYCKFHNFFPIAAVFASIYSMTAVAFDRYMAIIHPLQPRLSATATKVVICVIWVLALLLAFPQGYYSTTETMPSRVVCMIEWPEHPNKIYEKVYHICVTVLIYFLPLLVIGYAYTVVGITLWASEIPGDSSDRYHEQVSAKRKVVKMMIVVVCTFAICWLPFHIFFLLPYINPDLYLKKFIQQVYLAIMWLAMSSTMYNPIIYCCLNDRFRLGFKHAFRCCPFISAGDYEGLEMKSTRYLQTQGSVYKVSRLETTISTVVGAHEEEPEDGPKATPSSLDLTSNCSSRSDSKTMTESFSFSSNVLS

[3] = target: Receptor tyrosine-protein kinase erbB-2 (Homo sapiens, UniProt P04626); assay type: cell-based; settings: insect cells
Sequence of Receptor tyrosine-protein kinase erbB-2 (P04626 whole entry): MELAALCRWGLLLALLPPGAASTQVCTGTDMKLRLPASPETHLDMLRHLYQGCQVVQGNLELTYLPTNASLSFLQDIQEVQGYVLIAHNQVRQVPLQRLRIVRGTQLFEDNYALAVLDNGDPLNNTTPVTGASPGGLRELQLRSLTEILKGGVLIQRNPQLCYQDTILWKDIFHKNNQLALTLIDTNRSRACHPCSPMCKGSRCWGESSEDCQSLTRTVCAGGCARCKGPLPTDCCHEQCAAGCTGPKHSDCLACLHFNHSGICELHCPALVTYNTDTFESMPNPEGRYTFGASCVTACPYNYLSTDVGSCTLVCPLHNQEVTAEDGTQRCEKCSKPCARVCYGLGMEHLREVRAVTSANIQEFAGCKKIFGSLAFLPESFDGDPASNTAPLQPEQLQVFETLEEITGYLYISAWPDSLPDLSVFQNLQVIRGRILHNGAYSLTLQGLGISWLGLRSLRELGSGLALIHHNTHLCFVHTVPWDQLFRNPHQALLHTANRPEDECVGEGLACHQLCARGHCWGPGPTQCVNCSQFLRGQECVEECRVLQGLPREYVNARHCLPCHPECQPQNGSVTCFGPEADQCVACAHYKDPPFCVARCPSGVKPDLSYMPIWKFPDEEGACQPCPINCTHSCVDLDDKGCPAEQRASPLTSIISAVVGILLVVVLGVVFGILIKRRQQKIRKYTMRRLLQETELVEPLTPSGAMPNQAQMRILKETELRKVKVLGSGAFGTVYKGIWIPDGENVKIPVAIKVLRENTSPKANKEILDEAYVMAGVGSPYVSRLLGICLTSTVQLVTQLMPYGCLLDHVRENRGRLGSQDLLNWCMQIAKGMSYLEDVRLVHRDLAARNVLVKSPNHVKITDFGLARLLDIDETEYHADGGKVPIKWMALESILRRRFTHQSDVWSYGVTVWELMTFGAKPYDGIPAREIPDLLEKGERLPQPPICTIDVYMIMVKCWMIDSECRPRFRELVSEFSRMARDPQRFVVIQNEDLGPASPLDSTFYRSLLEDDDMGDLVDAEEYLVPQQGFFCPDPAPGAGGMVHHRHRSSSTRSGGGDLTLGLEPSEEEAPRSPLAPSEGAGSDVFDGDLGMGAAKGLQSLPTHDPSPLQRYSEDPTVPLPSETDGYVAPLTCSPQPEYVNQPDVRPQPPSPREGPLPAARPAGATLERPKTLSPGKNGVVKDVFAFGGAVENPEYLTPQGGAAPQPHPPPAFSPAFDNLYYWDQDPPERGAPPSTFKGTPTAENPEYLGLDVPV

[4] = target: Vascular endothelial growth factor receptor 1 (Homo sapiens, UniProt P17948); assay type: cell-based; settings: huvec; also: in other assays of this panel Not Active means under 50% inhibition at 10 µM
Sequence of Vascular endothelial growth factor receptor 1 (P17948 whole entry): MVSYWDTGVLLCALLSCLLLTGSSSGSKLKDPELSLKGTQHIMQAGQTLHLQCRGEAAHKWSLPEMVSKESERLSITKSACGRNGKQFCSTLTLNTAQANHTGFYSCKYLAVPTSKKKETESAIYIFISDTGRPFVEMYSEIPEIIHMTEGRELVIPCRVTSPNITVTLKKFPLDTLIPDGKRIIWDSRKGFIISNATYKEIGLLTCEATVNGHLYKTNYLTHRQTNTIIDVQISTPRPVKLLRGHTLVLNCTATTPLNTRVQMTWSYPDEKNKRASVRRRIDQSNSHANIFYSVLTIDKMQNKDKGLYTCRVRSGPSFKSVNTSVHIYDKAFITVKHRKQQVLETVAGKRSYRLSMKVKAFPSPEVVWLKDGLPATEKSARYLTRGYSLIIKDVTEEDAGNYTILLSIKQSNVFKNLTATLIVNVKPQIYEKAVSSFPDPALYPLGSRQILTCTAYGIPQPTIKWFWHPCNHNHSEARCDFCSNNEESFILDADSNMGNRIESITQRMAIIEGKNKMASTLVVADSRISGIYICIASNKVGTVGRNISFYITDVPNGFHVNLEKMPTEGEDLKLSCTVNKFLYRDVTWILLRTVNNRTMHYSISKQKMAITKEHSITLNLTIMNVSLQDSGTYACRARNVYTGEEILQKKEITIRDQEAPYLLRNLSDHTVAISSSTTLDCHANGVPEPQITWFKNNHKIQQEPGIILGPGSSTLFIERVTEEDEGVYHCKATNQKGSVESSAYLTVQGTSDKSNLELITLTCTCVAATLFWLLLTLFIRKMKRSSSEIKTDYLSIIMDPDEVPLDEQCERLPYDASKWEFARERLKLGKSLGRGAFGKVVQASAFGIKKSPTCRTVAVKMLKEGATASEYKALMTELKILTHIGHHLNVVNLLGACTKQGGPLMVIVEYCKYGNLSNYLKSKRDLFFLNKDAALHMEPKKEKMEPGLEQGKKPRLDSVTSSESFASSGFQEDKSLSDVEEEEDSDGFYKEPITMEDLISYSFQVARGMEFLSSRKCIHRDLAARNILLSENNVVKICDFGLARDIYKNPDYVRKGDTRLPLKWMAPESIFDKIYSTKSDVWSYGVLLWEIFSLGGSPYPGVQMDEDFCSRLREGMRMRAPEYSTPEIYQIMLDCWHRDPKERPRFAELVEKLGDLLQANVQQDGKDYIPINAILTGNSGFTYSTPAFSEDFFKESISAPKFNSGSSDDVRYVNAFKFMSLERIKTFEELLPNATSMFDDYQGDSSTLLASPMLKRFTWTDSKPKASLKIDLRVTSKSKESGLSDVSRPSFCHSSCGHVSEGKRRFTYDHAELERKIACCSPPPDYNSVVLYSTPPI

Sequence of 5-hydroxytryptamine receptor 4 (O70528 whole entry): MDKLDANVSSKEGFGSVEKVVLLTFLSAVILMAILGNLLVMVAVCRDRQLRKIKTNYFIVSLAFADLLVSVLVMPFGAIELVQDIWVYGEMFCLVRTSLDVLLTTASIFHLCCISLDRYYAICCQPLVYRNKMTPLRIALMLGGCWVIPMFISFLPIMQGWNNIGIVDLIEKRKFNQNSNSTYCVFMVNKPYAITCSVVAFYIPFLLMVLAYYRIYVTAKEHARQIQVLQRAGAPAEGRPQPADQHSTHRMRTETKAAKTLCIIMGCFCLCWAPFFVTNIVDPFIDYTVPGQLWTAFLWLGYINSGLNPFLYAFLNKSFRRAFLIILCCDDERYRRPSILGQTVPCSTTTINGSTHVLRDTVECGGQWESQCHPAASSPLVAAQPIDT

SMILES	IC50 [1]	IC50 (Endothelin-1 receptor)	IC50 [2]	Ki [2]	IC50 (Adenosine receptor A3; cho-k1)	IC50 (Insulin receptor)	IC50 (Substance-P receptor)	IC50 [3]	IC50 [4]	IC50 (Adenosine receptor A3; read-out: IC50)	Ki (Adenosine receptor A3; read-out: Ki)
OC[C@@H](O)[C@@H](O)[C@H](O)[C@H](O)CO [MANNITOL]	Not Active	Not Active	Not Active	Not Active	Not Active	Not Active	Not Active	Not Active	Not Active		
Cc1cn([C@H]2C=C[C@@H](CO)O2)c(=O)[nH]c1=O [STAVUDINE]	Not Active	Not Active	Not Active	Not Active	Not Active	Not Active	Not Active	Not Active	Not Active		
C[N+]1(C)[C@@H]2C[C@@H](OC(=O)[C@H](CO)c3ccccc3)C[C@H]1[C@@H]1O[C@@H]12.[Br-] [METHSCOPOLAMINE BROMIDE]	Not Active	Not Active	Not Active	Not Active	Not Active	Not Active	Not Active	Not Active	Not Active		
CC1=C(/C=C/C(C)=C/C=C/C(C)=C/C(=O)O)C(C)(C)CCC1 [TRETINOIN]	Not Active	Not Active	Not Active	Not Active		Not Active	Not Active	Not Active	Not Active	5.27 µM	2980 nM
